Assay results reported in US8178658B2 (Dow AgroSciences, LLC, priority 2008, dated 2012).

Assays:
[1] = test system: beet armyworm (BAW; Spodoptera exigua: Lepidoptera); test: 96-well microtiter plate-based high throughput (HTS) diet bioassay on beet armyworm (BAW HTS); type: in vivo; settings: BAW eggs, 12 μg test compound per well, mortality at 6 d post-treatment, mortality class
Outline: (§1)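 Spodoptera exigua eggs on artificial diet in 96-well plates, surface-treated with 12 μg compound in DMSO-acetone-water; dark, 29° C, mortality at 6 d, six replicates. 128-well trays: second-instar larvae on diet treated at 50 μg/cm^2, 25° C, 14:10 light-dark, six days, mortality averaged over eight wells.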

[2] = test system: beet armyworm (BAW; Spodoptera exigua: Lepidoptera); test: 128-well diet tray assay on beet armyworm (BAW 50); type: in vivo; settings: 128-well diet tray assay; 50 μg/cm^2 of test compound on diet; second instar BAW larvae; mortality class
Outline: as §1

[3] = 96-well microtiter plate HTS diet assay

Row | SMILES | BAW HTS ([1]; 96-well HTS diet assay) | BAW HTS [1, 3] | BAW 50 ug/cm2 [2]
1 | COC1C(C)OC(ON=Cc2ccc(-c3cc(-c4ccc(OC(F)(F)F)cc4)ncn3)cc2)C(OC)C1OC (stereo not drawn) [Compound 140] | B (either (1) the compound was tested and less than 50 percent mortality was observed or (2) the compound was not tested) | B (either (1) the compound was tested and less than 50 percent mortality was observed or (2) the compound was not tested) | A (the compound was tested and at least 50 percent mortality was observed)
2 | CO[C@@H]1[C@@H](OC)[C@H](C)O[C@@H](O/N=C/c2ccc(-c3ncc(-c4ccc(OC(F)(F)C(F)(F)F)cc4)cn3)cc2)[C@@H]1OC [Compound 141] | A (the compound was tested and at least 50 percent mortality was observed) | A (the compound was tested and at least 50 percent mortality was observed) | A (the compound was tested and at least 50 percent mortality was observed)
3 | CCOC1C(OC)C(C)OC(ON=Cc2ccc(-c3ncc(-c4ccc(OC(F)(F)C(F)(F)F)cc4)cn3)cc2)C1OC (stereo not drawn) [Compound 142] | A (the compound was tested and at least 50 percent mortality was observed) | A (the compound was tested and at least 50 percent mortality was observed) | A (the compound was tested and at least 50 percent mortality was observed)
4 | CCOC1C(OC)C(C)OC(ON=Cc2ccc(-c3ncc(-c4cccc(OC(F)(F)F)c4)cn3)cc2)C1OC (stereo not drawn) [Compound 143] | B (either (1) the compound was tested and less than 50 percent mortality was observed or (2) the compound was not tested) | B (either (1) the compound was tested and less than 50 percent mortality was observed or (2) the compound was not tested) | A (the compound was tested and at least 50 percent mortality was observed)
5 | CCCOC1C(OC)C(C)OC(ON=Cc2ccc(-c3ncc(-c4ccc(OC(F)(F)F)cc4)cn3)cc2)C1OC (stereo not drawn) [Compound 144] | B (either (1) the compound was tested and less than 50 percent mortality was observed or (2) the compound was not tested) | B (either (1) the compound was tested and less than 50 percent mortality was observed or (2) the compound was not tested) | A (the compound was tested and at least 50 percent mortality was observed)
6 | CCOC1C(OC)C(C)OC(ON=Cc2cccc(-c3ncc(-c4ccc(OC(F)(F)F)cc4)cn3)c2)C1OC (stereo not drawn) [Compound 146] | B (either (1) the compound was tested and less than 50 percent mortality was observed or (2) the compound was not tested) | B (either (1) the compound was tested and less than 50 percent mortality was observed or (2) the compound was not tested) | A (the compound was tested and at least 50 percent mortality was observed)
7 | CCOC1C(OC)C(C)OC(ON=Cc2cccc(-c3ncc(-c4ccccc4OC(F)(F)F)cn3)c2)C1OC (stereo not drawn) [Compound 147] | B (either (1) the compound was tested and less than 50 percent mortality was observed or (2) the compound was not tested) | B (either (1) the compound was tested and less than 50 percent mortality was observed or (2) the compound was not tested) | B (either (1) the compound was tested and less than 50 percent mortality was observed or (2) the compound was not tested)
8 | CCOC1C(OC)C(C)OC(ON=Cc2ccc(-c3ncc(-c4ccc(OC(F)(F)F)cc4)cn3)cc2F)C1OC (stereo not drawn) [Compound 148] | B (either (1) the compound was tested and less than 50 percent mortality was observed or (2) the compound was not tested) | B (either (1) the compound was tested and less than 50 percent mortality was observed or (2) the compound was not tested) | A (the compound was tested and at least 50 percent mortality was observed)
